Laboratory results published in BindingDB's records for doi:10.1016/j.carres.2010.10.023 (East China University of Science and Technology, 2011).

Columns and labels:
Assay in all cases: Inhibitor Assay
Conditions in all cases: 30 °C
[1] = target: T1, Tyrosine-protein phosphatase non-receptor type 1 (Homo sapiens, UniProt P18031)
T1 sequence (P18031 whole entry): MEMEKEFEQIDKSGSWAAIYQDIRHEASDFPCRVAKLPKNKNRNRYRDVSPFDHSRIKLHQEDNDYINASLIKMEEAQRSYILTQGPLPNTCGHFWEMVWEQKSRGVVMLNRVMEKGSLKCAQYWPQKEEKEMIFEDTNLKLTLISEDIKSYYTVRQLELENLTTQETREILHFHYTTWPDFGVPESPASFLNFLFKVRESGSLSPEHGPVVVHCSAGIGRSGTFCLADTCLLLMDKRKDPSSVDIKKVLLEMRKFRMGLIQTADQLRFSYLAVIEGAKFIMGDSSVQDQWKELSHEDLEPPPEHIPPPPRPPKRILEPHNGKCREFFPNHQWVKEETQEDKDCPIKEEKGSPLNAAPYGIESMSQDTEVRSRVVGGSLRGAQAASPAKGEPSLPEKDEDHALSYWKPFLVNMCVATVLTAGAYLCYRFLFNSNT
Protocol: The assay mixture ([…]) containing 50 mM MOPS (pH 6.5), 2 mM pNPP and PTP1B were monitored at 405 nm for 2 min at 30 C.

[2] = target: Receptor-type tyrosine-protein phosphatase F (Homo sapiens, UniProt P10586)
Receptor-type tyrosine-protein phosphatase F, sequence (P10586 whole entry): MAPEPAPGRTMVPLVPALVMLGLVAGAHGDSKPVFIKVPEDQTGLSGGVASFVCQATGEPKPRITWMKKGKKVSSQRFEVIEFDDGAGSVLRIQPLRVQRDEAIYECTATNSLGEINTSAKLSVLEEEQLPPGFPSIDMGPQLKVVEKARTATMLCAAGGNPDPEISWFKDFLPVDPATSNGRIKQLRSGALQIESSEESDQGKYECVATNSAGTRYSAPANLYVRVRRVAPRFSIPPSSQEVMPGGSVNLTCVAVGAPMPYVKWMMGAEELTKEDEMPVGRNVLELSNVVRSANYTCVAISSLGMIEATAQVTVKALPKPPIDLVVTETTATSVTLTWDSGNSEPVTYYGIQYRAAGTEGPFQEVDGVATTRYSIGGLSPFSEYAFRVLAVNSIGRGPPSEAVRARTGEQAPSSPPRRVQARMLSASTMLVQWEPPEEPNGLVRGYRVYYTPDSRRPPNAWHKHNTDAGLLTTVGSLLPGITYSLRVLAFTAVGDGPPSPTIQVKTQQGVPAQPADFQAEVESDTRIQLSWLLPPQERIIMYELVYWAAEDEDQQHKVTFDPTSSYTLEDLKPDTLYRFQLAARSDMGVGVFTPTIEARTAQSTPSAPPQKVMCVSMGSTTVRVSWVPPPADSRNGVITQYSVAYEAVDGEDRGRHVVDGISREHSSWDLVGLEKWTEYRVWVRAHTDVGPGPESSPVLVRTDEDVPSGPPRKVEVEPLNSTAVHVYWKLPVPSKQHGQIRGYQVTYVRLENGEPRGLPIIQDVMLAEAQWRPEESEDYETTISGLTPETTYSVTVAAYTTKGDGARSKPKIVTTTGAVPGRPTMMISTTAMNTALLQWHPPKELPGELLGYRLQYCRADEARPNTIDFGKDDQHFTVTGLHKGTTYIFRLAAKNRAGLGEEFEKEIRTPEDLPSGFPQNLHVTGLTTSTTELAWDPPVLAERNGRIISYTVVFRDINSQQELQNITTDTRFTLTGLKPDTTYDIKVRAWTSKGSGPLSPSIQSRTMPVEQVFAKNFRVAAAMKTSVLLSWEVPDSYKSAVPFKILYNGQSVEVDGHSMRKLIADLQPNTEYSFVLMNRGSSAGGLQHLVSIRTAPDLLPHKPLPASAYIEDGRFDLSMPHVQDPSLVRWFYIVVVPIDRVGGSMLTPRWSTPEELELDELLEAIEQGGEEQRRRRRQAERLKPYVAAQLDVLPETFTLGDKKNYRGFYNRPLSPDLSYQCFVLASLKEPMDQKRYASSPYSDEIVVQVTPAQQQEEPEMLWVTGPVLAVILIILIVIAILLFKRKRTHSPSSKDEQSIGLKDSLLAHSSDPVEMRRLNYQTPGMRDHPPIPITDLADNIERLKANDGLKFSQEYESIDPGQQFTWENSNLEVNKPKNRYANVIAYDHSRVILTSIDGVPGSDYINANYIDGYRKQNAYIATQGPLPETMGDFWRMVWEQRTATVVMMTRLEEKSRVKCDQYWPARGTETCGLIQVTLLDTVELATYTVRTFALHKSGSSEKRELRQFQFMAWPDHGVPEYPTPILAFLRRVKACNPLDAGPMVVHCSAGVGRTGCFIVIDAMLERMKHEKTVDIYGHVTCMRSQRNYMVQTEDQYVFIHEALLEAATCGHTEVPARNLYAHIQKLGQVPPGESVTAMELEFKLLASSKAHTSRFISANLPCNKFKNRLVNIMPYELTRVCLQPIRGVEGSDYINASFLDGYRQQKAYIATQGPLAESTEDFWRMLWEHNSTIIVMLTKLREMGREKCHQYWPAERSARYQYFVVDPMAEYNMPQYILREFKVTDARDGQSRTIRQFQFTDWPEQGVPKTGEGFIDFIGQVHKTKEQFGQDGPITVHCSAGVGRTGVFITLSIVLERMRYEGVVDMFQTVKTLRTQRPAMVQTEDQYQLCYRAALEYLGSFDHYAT

[3] = target: T2, Tyrosine-protein phosphatase non-receptor type 11 (Homo sapiens, UniProt Q06124)
T2 sequence (Q06124 whole entry): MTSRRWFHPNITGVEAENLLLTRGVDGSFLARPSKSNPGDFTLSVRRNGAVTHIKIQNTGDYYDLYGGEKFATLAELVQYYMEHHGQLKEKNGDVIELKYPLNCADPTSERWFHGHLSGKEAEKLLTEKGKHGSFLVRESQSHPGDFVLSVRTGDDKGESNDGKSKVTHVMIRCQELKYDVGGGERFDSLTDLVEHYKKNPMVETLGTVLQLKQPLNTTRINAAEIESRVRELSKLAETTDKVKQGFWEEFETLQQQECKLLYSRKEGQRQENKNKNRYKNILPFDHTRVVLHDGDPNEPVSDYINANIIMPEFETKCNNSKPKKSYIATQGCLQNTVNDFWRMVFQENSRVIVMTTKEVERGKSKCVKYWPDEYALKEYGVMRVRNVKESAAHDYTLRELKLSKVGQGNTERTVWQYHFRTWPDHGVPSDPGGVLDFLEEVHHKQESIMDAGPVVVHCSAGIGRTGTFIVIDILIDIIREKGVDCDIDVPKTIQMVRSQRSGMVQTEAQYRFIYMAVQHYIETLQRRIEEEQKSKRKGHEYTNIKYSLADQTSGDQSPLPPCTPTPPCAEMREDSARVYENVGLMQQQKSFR

[4] = target: T3, Tyrosine-protein phosphatase non-receptor type 2 (Homo sapiens, UniProt P17706)
T3 sequence (P17706 whole entry): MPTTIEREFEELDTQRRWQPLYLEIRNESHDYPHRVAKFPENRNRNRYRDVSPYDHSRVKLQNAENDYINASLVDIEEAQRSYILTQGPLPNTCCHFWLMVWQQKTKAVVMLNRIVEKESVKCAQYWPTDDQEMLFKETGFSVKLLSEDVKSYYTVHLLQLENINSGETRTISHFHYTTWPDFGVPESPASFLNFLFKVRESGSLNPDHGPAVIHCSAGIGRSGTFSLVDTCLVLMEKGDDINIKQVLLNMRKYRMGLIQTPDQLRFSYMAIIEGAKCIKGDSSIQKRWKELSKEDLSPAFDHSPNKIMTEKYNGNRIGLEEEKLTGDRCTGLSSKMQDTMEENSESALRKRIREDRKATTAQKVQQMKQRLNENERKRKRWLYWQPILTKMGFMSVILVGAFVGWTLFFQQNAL

[5] = target: Tyrosine-protein phosphatase non-receptor type 6 (Homo sapiens, UniProt P29350)
Tyrosine-protein phosphatase non-receptor type 6, sequence (P29350 whole entry): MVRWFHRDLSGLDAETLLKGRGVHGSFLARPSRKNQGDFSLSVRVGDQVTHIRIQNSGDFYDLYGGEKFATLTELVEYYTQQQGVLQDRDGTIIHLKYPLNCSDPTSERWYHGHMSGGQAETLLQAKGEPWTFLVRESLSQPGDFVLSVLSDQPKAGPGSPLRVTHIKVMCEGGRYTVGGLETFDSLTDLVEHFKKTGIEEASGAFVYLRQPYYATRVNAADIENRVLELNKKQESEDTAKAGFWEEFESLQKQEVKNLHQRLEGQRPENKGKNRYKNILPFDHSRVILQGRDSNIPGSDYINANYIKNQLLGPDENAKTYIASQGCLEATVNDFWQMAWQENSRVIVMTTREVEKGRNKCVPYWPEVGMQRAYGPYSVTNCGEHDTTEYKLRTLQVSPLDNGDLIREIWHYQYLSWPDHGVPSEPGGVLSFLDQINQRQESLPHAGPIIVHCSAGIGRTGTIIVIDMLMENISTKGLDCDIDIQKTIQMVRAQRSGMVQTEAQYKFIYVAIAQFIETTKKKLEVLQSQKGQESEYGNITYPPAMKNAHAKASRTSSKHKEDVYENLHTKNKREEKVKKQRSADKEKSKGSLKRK

SMILES	IC50 [1]	other results
CO[C@H]1O[C@H](COCc2cn(-c3ccc(C(C)=O)cc3)nn2)[C@@H](OCc2ccccc2)[C@H](OCc2ccccc2)[C@H]1OCc1ccccc1 [Methyl 2,3,4-tri-O-benzyl-6-O-[1-(4-acetylphenyl)-1H-1,2,3-triazol-4-ylmethyl] a-D-glucopyranoside (10)]	> 100 µM	–
CO[C@H]1O[C@H](COCc2cn(-c3ccc(C(=O)O)cc3)nn2)[C@@H](OCc2ccccc2)[C@H](OCc2ccccc2)[C@H]1OCc1ccccc1 [Methyl 2,3,4-tri-O-benzyl-6-O-[1-(4-carboxyphenyl)-1H-1,2,3-triazol-4-ylmethyl] a-D-glucopyranoside (14)]	> 100 µM	–
COC(=O)C(=O)c1ccc(-n2cc(COC[C@H]3O[C@H](OC)[C@H](OCc4ccccc4)[C@@H](OCc4ccccc4)[C@@H]3OCc3ccccc3)nn2)cc1 [Methyl 2,3,4-tri-O-benzyl-6-O-[1-(4-(2-methoxy-2-oxoacetyl)phenyl)-1H-1,2,3-triazol-4-ylmethyl] a-D-glucopyranoside (13)]	12.7 µM	–
COC(=O)c1ccc(-n2cc(COC[C@H]3O[C@H](OC)[C@H](OCc4ccccc4)[C@@H](OCc4ccccc4)[C@@H]3OCc3ccccc3)nn2)cc1 [Methyl 2,3,4-tri-O-benzyl-6-O-[1-(4-(methoxycarbonyl)-phenyl)-1H-1,2,3-triazol-4-ylmethyl] a-D-glucopyranoside (12)]	> 100 µM	–
O=C(O)C(=O)c1ccc(-n2cc(CO[C@H]3O[C@H](COCc4ccccc4)[C@@H](OCc4ccccc4)[C@H](OCc4ccccc4)[C@H]3OCc3ccccc3)nn2)cc1 [1-(4-(Carboxycarbonyl)phenyl)-1H-1,2,3-triazol-4-ylmethyl 2,3,4,6-tetra-O-benzyl a-D-glucopyranoside (19)]	5.6 µM	IC50 [2]: > 100 µM; IC50 [3]: 55.4 µM; IC50 [4]: 6.4 µM; IC50 [5]: > 100 µM
CO[C@H]1O[C@H](COCc2cn(-c3ccc(C(=O)C(=O)O)cc3)nn2)[C@@H](OCc2ccccc2)[C@H](OCc2ccccc2)[C@H]1OCc1ccccc1 [Methyl 2,3,4-tri-O-benzyl-6-O-[1-(4-(carboxycarbonyl)phenyl)-1H-1,2,3-triazol-4-ylmethyl] a-D-glucopyranoside (15)]	3.2 µM	IC50 [2]: > 100 µM; IC50 [3]: > 100 µM; IC50 [4]: 14.5 µM; IC50 [5]: > 100 µM
[N-]=[N+]=Nc1ccc(C(=O)C(=O)O)cc1 [1-[4-(carboxycarbonyl)phenyl]triaz-2-yn-2-ium-1-ide (7)]	30.2 µM	–
O=C(O)c1ccc(-n2cc(CO[C@H]3O[C@H](COCc4ccccc4)[C@@H](OCc4ccccc4)[C@H](OCc4ccccc4)[C@H]3OCc3ccccc3)nn2)cc1 [1-(4-Carboxyphenyl)-1H-1,2,3-triazol-4-ylmethyl 2,3,4,6-tetra-O-benzyl a-D-glucopyranoside (18)]	11.1 µM	–

Second part, led by results:

IC50 [1]	SMILES	other results
> 100 µM	CC(=O)c1ccc(-n2cc(CO[C@H]3O[C@H](COCc4ccccc4)[C@@H](OCc4ccccc4)[C@H](OCc4ccccc4)[C@H]3OCc3ccccc3)nn2)cc1 [1-(4-Acetylphenyl)-1H-1,2,3-triazol-4-ylmethyl 2,3,4,6-tetra-O-benzyl a-D-glucopyranoside (11)]	–
> 100 µM	COC(=O)c1ccc(-n2cc(CO[C@H]3O[C@H](COCc4ccccc4)[C@@H](OCc4ccccc4)[C@H](OCc4ccccc4)[C@H]3OCc3ccccc3)nn2)cc1 [1-(4-(Methoxycarbonyl)phenyl)-1H-1,2,3-triazol-4-ylmethyl 2,3,4,6-tetra-O-benzyl a-D-glucopyranoside (16)]	–
12.3 µM	COC(=O)C(=O)c1ccc(-n2cc(CO[C@H]3O[C@H](COCc4ccccc4)[C@@H](OCc4ccccc4)[C@H](OCc4ccccc4)[C@H]3OCc3ccccc3)nn2)cc1 [1-(4-(2-Methoxy-2-oxoacetyl)phenyl)-1H-1,2,3-triazol-4-ylmethyl 2,3,4,6-tetra-O-benzyl-a-D-glucopyranoside (17)]	–
